# Test results published in patent US20240408170A1, “COMPOSITION FOR DECOMPOSITION OF TRYPSIN OR TMPRSS2” (Riken, priority 2021, published 2024).
# Columns and labels:
# trypsin (PRSS2) = target: T1, trypsin (PRSS2) (Mus musculus, UniProt P07146); assay: Ex vivo incubation of mouse faeces at 37° C. for 48 hours, western blot; conditions: faeces of GF mice inoculated together with 2-mix, 37° C. 48 hours
# T1 construct: the anionic trypsin protease was abundantly present in the cecal contents and the faeces; from tissue; host or cells: faeces and cecal contents of germ-free / gnotobiotic mice
# T1 sequence (P07146 24-246): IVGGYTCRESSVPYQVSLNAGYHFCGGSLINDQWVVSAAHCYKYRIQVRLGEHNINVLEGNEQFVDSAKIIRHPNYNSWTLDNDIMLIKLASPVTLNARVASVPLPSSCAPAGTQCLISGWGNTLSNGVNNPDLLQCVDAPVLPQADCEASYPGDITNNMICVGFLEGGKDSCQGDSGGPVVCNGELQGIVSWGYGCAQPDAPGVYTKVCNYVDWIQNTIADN
# Protocol: Mouse faecal samples were suspended and diluted 50-fold with phosphate buffered saline (PBS) to which a protease inhibitor cocktail (Roche) was added. Subsequently, the suspended sample was centrifuged at 15,000×g for 10 minutes at 4° C., and the supernatant was subjected to western blot. Mouse pancreatic tissue was rapidly frozen in liquid nitrogen. Proteins were extracted by TRIzol Reagent (Thermo Fisher Scientific K.K.), and the final protein concentration was adjusted to 4 μg/μL. For SDS-PAGE and blotting, Novex (registered trademark) NuPAGE (registered trademark) SDS-PAGE Gel system (Thermo Fisher Scientific K.K.) and iBlotTM 2 Dry Blotting System (Thermo Fisher Scientific K.K.) were used according to the manufacturer's instructions. The antibodies used are as follows. A rabbit anti-mouse PRSS2 antibody (Cosmo Bio Co., Ltd.), a rabbit anti-mouse HSP90 antibody (#4877, Cell Signaling Technology, Inc.), a rabbit anti-human PRSS2 antibody (LS-B15726, LSBio), a rabbit anti-human PRSS1 antibody (LS-331381, LSBio), a rabbit anti-mouse TMPRSS2 antibody (LS-C373022, LSBio, against the sequence of the protease domain), a rabbit anti-6-His antibody ([…]-[…], Bethyl Laboratories, Inc.), a goat anti-mouse IgA a chain antibody (HRP) (ab97235, Abcam plc.), a rat anti-mouse κ chain antibody (HRP) (ab99632, Abcam plc.), a rabbit anti-mouse CELA3b antibody (OACD03205, Aviva Systems Biology Corporation), an anti-rabbit IgG antibody (HRP) (#7074, Cell Signaling Technology, Inc.), and a rabbit anti-mouse Reg3 antibody (51153-[…], Sino Biological, Inc.).
# Citrobacter rodentium = assay: Vaccine administration experiment (peracetic acid-inactivated C. rodentium) followed by C. rodentium infection; type: in vivo, mouse; conditions: with 2-mix
# Protocol: For a colony-forming unit (CFU) assay, cecal patches or cecal luminal contents were collected, and after homogenization with PBS, serially diluted homogenates were plated on LB agar plates. CFU was counted after overnight culture at 37° C. under aerobic conditions.
# For the ex vivo evaluation of C. rodentium-specific IgA, the cecal contents were resuspended in a 5× (w/v) LB medium and centrifuged. The supernatant was filtered through a sterilization filter unit with a PVDF film having a pore size of 0.22 μm, and then mixed with an equal amount of a C. rodentium culture solution cultured overnight in vitro. This mixture was gently shaken at room temperature and incubated for 1 hour to examine the aggregation effect with a confocal microscope (Leica TCS SP8). Alternatively, after the incubation, the mixture was centrifuged and washed once with PBS. Thereafter, the bacterial cell pellet was dissolved in a 1% SDS solution (diluted with a 50 mM Tris-HCl buffer solution to which 5 mM EDTA was added). The lysate was stained by western blot with a goat anti-mouse IgA a chain antibody (HRP) (ab97235) to evaluate the relative amount of C. rodentium-binding (C. rodentium-specific) IgA in the faecal contents.
# For a vaccine administration experiment, 200 μL of 2-mix (B. uniformis and P. merdae)+P. clara (WT), or 2-mix+P. clara (Δ00502) was preliminarily administered to GF mice. After 4 days, C. rodentium (10^10 cells/mouse) inactivated with peracetic acid was orally administered to the mice once a week for 3 weeks. After 3 weeks of immunization, the mice were infected with C. rodentium (150 μL/mouse) cultured overnight by oral administration, and euthanized on day 14.
# The C. rodentium inactivated by peracetic acid was produced as follows. C. rodentium cultured overnight was recovered by centrifugation (16,000×g, 10 minutes) and resuspended in sterilized PBS at a density of 10^10 cells per 1 mL. Peracetic acid (240990, Sigma-Aldrich) was added such that a final concentration was 0.4%, and incubation was performed at room temperature for 1 hour. […]
# recombinant mouse PRSS2 = target: T2, recombinant mouse PRSS2 (Mus musculus, UniProt P07146); assay: Trypsin decomposition in vitro by bacteria (western blot); type: biochemical; conditions: bacteria or culture supernatant incubated with recombinant mouse trypsin
# T2 construct: purchased Sino Biological, Inc. 50383-M08H
# T2 sequence (P07146 24-246): T1 sequence (P07146 24-246)
# Protocol: Mouse faecal samples were suspended and diluted 50-fold with phosphate buffered saline (PBS) to which a protease inhibitor cocktail (Roche) was added. Subsequently, the suspended sample was centrifuged at 15,000×g for 10 minutes at 4° C., and the supernatant was subjected to western blot. Mouse pancreatic tissue was rapidly frozen in liquid nitrogen. Proteins were extracted by TRIzol Reagent (Thermo Fisher Scientific K.K.), and the final protein concentration was adjusted to 4 μg/μL. For SDS-PAGE and blotting, Novex (registered trademark) NuPAGE (registered trademark) SDS-PAGE Gel system (Thermo Fisher Scientific K.K.) and iBlot™ 2 Dry Blotting System (Thermo Fisher Scientific K.K.) were used according to the manufacturer's instructions.
# The bacteria cultured overnight were incubated with recombinant mouse trypsin (final concentration: 1 μg/mL) for 1 hour or with human trypsin (final concentration: 20 μg/mL) for 4 hours. Recombinant trypsin isoforms used were as follows: recombinant mouse PRSS2 (50383-M08H, Sino Biological, Inc.), recombinant human PRSS1 (LS-G135640), recombinant human PRSS2 (LS-G20167), and recombinant human PRSS3 (His-tag) (NBP2-52220).
# In some experiments, recombinant mouse PRSS2 was first treated with one of the following trypsin inhibitors for 30 minutes before incubation with a P. clara culture solution. AEBSF (Sigma-Aldrich, final concentration: 2 mM), Leupeptin (Sigma-Aldrich, final concentration: 100 μM), and TLCK (Abcam plc., final concentration: 100 μM).
# In some experiments, P. clara was cultured overnight in the presence of Tunicamycin (Sigma-Aldrich, final concentration: 10 μg/mL), 2-Fluoro-L-fucose (Cayman Chemical Company, final concentration: 250 μM), or the corresponding DMSO control, before incubation with recombinant mouse PRSS2.
# In the experiment of evaluating the effect of Ca^2+, P. clara was cultured in a low Ca^2+ mGAM medium supplemented with or without 1 mM of Ca^2+, before incubation with recombinant mouse PRSS2. In the experiment in which the supernatant of P. clara was used, P. clara cultured overnight was filtered through a sterilization filter unit formed using a PVDF film having a pore size of 0.22 μm.
substance,measurement,setting,value
Paraprevotella clara [JCM 14859],trypsin in faeces,trypsin (PRSS2),reduced
same,body weight after infection with C. rodentium,Citrobacter rodentium; orally vaccinated mice,body weight loss was reduced
same,C. rodentium-specific IgA in cecal luminal contents,Citrobacter rodentium; western blot,significantly high amount of C. rodentium-specific IgA
same,total IgA in cecal luminal contents,Citrobacter rodentium; western blot,significantly high total IgA amount
same,decomposition of rmPRSS2 (western blot),recombinant mouse PRSS2,effect of reducing trypsin
